Molecular target: human PCSK9 (Homo sapiens, UniProt Q8NBP7)
Assay: PCSK9 ligand binding TR-FRET assay (interference with binding of human PCSK9 to human LDLR)
Details: for Max % inhibition: PCSK9 FRET assay, efficacy (Amax), 100% = 1 uM unlabeled human PCSK9, 0% = DMSO; for IC50: TR-FRET, human PCSK9 Alexa Fluor 647 / human LDLR extracellular domain-Europium Kryptate, read-out: PCSK9 FRET Assay IC50
Method in brief: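 Threefold compound dilutions were pre-incubated 30 min with PCSK9, after which 4 nM Europium Kryptate-tagged human LDLR ectodomain was added for a further 2 h.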

Sequence of human PCSK9 (Q8NBP7 153-692): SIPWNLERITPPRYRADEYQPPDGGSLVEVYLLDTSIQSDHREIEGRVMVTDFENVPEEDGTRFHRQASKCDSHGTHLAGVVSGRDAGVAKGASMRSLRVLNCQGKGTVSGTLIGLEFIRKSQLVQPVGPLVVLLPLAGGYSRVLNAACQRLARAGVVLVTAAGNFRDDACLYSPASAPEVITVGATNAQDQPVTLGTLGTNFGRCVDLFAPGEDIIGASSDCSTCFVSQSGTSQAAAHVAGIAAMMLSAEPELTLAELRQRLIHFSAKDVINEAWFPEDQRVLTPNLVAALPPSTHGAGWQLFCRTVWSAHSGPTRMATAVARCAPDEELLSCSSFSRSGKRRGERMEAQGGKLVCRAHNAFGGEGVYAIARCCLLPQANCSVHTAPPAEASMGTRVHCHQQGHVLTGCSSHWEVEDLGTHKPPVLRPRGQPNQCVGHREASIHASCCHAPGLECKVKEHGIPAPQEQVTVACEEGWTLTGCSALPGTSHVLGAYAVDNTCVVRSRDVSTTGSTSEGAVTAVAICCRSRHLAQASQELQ
Sequence of human PCSK9 (Q8NBP7 31-152 partner limits assumed): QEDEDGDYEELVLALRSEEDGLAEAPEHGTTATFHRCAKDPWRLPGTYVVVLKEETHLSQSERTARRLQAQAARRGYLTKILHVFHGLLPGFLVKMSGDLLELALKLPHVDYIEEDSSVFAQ

Max % inhibition [%]	IC50 [nM]	Compound
107.53	9.8	COC[C@@H]1NC(=O)[C@H](C)N(Cc2ccc(Cl)cc2Oc2ccc(-c3cnc(CN(C)C)n3C)cc2)C(=O)C[C@@H](Cc2ccccc2)C(=O)N(C)[C@@H](C(=O)O)CNC(=O)C[C@H](Cc2ccc(Cl)cc2)N(C)C1=O [Compound 177, (2S,5S,8S,13R,16R)-16-benzyl-1-(4-chloro-2-(4-(2-((dimethylamino)methyl)-1-methyl-1H-imidazol-5-yl)phenoxy)benzyl)-8-(4-chlorobenzyl)-5-(methoxymethyl)-2,7,14-trimethyl-3,6,10,15,18-pentaoxo-1,4,7,11,14-pentaazacyclooctadecane-13-carboxylic acid]
103.76	0.6	COC[C@@H]1NC(=O)[C@H](C)N(Cc2ccc(OC(F)F)cc2Oc2ccc(-c3cnc(CN(C)C)n3C)cc2)C(=O)C[C@@H](Cc2ccccc2)C(=O)N(C)[C@@H](C)CNC(=O)C[C@H](Cc2ccc(Cl)cc2)N(C)C1=O [Compound 179, (2S,5S,8S,13S,16R)-16-benzyl-8-(4-chlorobenzyl)-1-(4-(difluoromethoxy)-2-(4-(2-((dimethylamino)methyl)-1-methyl-1H-imidazol-5-yl)phenoxy)benzyl)-5-(methoxymethyl)-2,7,13,14-tetramethyl-1,4,7,11,14-pentaazacyclooctadecane-3,6,10,15,18-pentaone]
54.93	10.3	CCc1ncc(-c2ccc(Oc3cc(Cl)ccc3CN3C(=O)C[C@@H](Cc4ccccc4)C(=O)N(C)[C@@H](C)CNC(=O)C[C@H](Cc4ccc(Cl)cc4)N(C)C(=O)[C@H](COC)NC(=O)[C@@H]3C)cc2)n1C [Compound 181, (2S,5S,8S,13S,16R)-16-benzyl-1-(4-chloro-2-(4-(2-ethyl-1-methyl-1H-imidazol-5-yl)phenoxy)benzyl)-8-(4-chlorobenzyl)-5-(methoxymethyl)-2,7,13,14-tetramethyl-1,4,7,11,14-pentaazacyclooctadecane-3,6,10,15,18-pentaone]
103.39	0.6	COC[C@@H]1NC(=O)[C@H](C)N(Cc2ccc(Cl)cc2Oc2ccc(-c3cnc(CN(C)C)n3C)cc2)C(=O)C[C@@H](Cc2ccccc2)C(=O)N(C)[C@@H](C)[C@H](C)NC(=O)C[C@H](Cc2ccc(Cl)cc2)N(C)C1=O [Compound 186, (2S,5S,8S,12S,13S,16R)-16-benzyl-1-(4-chloro-2-(4-(2-((dimethylamino)methyl)-1-methyl-1H-imidazol-5-yl)phenoxy)benzyl)-8-(4-chlorobenzyl)-5-(methoxymethyl)-2,7,12,13,14-pentamethyl-1,4,7,11,14-pentaazacyclooctadecane-3,6,10,15,18-pentaone]
94.30	1.3	COC[C@@H]1NC(=O)[C@H](C)N(Cc2ccc(Cl)cc2Oc2ccc(-c3cnc(CN(C)C)n3C)cc2)C(=O)C[C@@H](Cc2ccccc2)C(=O)N(C)[C@H]2CCOC[C@@H]2NC(=O)C[C@H](Cc2ccc(Cl)cc2)N(C)C1=O [Compound 187, (4S,7S,10S,14R,16aS,20aR)-14-benzyl-11-(4-chloro-2-(4-(2-((dimethylamino)methyl)-1-methyl-1H-imidazol-5-yl)phenoxy)benzyl)-4-(4-chlorobenzyl)-7-(methoxymethyl)-5,10,16-trimethyltetradecahydro-1H-pyrano[3,4-l][1,4,7,11,14]pentaazacyclooctadecine-2,6,9,12,15(3H)-pentaone]
100.60	32.6	COC[C@@H]1NC(=O)[C@H](C)N(Cc2ccc(Cl)cc2Oc2ccc(-c3cnc(CN4CCCC4)n3C)cc2)C(=O)C[C@@H](Cc2ccccc2)C(=O)N(C)[C@@H](CCN(C)C)CNC(=O)C[C@H](Cc2ccc(Cl)cc2)N(C)C1=O [Compound 190, (2S,5S,8S,13S,16R)-16-benzyl-1-(4-chloro-2-(4-(1-methyl-2-(pyrrolidin-1-ylmethyl)-1H-imidazol-5-yl)phenoxy)benzyl)-8-(4-chlorobenzyl)-13-(2-(dimethylamino)ethyl)-5-(methoxymethyl)-2,7,14-trimethyl-1,4,7,11,14-pentaazacyclooctadecane-3,6,10,15,18-pentaone]

The next lines start with the molecule.

Compound	Max % inhibition [%]	IC50 [nM]
COC[C@@H]1NC(=O)[C@H](C)N(Cc2ccc(Cl)cc2Oc2ccc(-c3cnc4c(c3)CN(C(=O)[C@H]3CCNC3)CC4)cc2)C(=O)C[C@@H](Cc2ccccc2)C(=O)N(C)[C@@H](C)CNC(=O)C[C@H](Cc2ccc(Cl)cc2)N(C)C1=O [Compound 176, (2S,5S,8S,13S,16R)-16-benzyl-1-(4-chloro-2-(4-(6-((S)-pyrrolidine-3-carbonyl)-5,6,7,8-tetrahydro-1,6-naphthyridin-3-yl)phenoxy)benzyl)-8-(4-chlorobenzyl)-5-(methoxymethyl)-2,7,13,14-tetramethyl-1,4,7,11,14-pentaazacyclooctadecane-3,6,10,15,18-pentaone]	70.99	4.3
COC[C@@H]1NC(=O)[C@H](C)N(Cc2ccc(Cl)cc2Oc2ccc(-c3cnc(CN(C)C)n3C)cc2)C(=O)C[C@@H](Cc2ccc(F)c[n+]2[O-])C(=O)N(C)[C@@H](C)CNC(=O)C[C@H](Cc2ccc(Cl)cc2)N(C)C1=O [Compound 180, 2-(((2S,5S,8S,13S,16R)-1-(4-chloro-2-(4-(2-((dimethylamino)methyl)-1-methyl-1H-imidazol-5-yl)phenoxy)benzyl)-8-(4-chlorobenzyl)-5-(methoxymethyl)-2,7,13,14-tetramethyl-3,6,10,15,18-pentaoxo-1,4,7,11,14-pentaazacyclooctadecan-16-yl)methyl)-5-fluoropyridine 1-oxide]	102.27	3.1
COC[C@@H]1NC(=O)[C@H](CCCNC(=O)OC(C)(C)C)N(Cc2ccc(Cl)cc2Oc2ccc(-c3cnc(CN(C)C)n3C)cc2)C(=O)C[C@@H](Cc2ccccc2)C(=O)N(C)[C@H]2CCCC[C@@H]2NC(=O)C[C@H](Cc2ccc(Cl)cc2)N(C)C1=O [Compound 182, tert-butyl (3-((4S,7S,10S,14R,16aS,20aS)-14-benzyl-11-(4-chloro-2-(4-(2-((dimethylamino)methyl)-1-methyl-1H-imidazol-5-yl)phenoxy)benzyl)-4-(4-chlorobenzyl)-7-(methoxymethyl)-5,16-dimethyl-2,6,9,12,15-pentaoxodocosahydrobenzo[l][1,4,7,11,14]pentaazacyclooctadecin-10-yl)propyl)carbamate]	99.86	1.2
COC[C@@H]1NC(=O)[C@H](C)N(Cc2ccc(Cl)cc2Oc2ccc(-c3cnc(CN(C)C)n3C)cc2)C(=O)C[C@@H](CC2CCCCC2)C(=O)N(C)[C@@H](C)CNC(=O)C[C@H](Cc2ccc(Cl)cc2)N(C)C1=O [Compound 183, (2S,5S,8S,13S,16R)-1-(4-chloro-2-(4-(2-((dimethylamino)methyl)-1-methyl-1H-imidazol-5-yl)phenoxy)benzyl)-8-(4-chlorobenzyl)-16-(cyclohexylmethyl)-5-(methoxymethyl)-2,7,13,14-tetramethyl-1,4,7,11,14-pentaazacyclooctadecane-3,6,10,15,18-pentaone]	81.31	11.2
COC[C@@H]1NC(=O)C(C)N(Cc2ccc(Cl)cc2Oc2ccc(-c3cnc(CN(C)C)n3C)cc2)C(=O)C[C@@H](C)C(=O)N(C)[C@@H](CC(C)C)CNC(=O)C[C@H](Cc2ccc(Cl)cc2)N(C)C1=O (stereo partly drawn) [Compound 184, (5S,8S,13S,16R)-1-(4-chloro-2-(4-(2-((dimethylamino)methyl)-1-methyl-1H-imidazol-5-yl)phenoxy)benzyl)-8-(4-chlorobenzyl)-13-isobutyl-5-(methoxymethyl)-2,7,14,16-tetramethyl-1,4,7,11,14-pentaazacyclooctadecane-3,6,10,15,18-pentaone]	54.06	9.4
COC[C@@H]1NC(=O)[C@H](C)N(Cc2ccc(Cl)cc2Oc2ccc(-n3cnc(C(=O)NCCO)c3C)cc2)C(=O)C[C@@H](Cc2ccccc2)C(=O)N(C)[C@@H](C)CNC(=O)C[C@H](Cc2ccc(Cl)cc2)N(C)C1=O [Compound 188, 1-(4-(2-(((2S,5S,8S,13S,16R)-16-benzyl-8-(4-chlorobenzyl)-5-(methoxymethyl)-2,7,13,14-tetramethyl-3,6,10,15,18-pentaoxo-1,4,7,11,14-pentaazacyclooctadecan-1-yl)methyl)-5-chlorophenoxy)phenyl)-N-(2-hydroxyethyl)-5-methyl-1H-imidazole-4-carboxamide]	75.17	16.2
COC[C@@H]1NC(=O)[C@H](C)N(Cc2ccc(Cl)cc2Oc2ccc(-c3cnc(CN4CC5(COC5)C4)n3C)cc2)C(=O)C[C@@H](Cc2ccccc2)C(=O)N(C)[C@@H](C)CNC(=O)C[C@H](Cc2ccc(Cl)cc2)N(C)C1=O [Compound 189, (2S,5S,8S,13S,16R)-1-(2-(4-(2-(2-oxa-6-azaspiro[3.3]heptan-6-ylmethyl)-1-methyl-1H-imidazol-5-yl)phenoxy)-4-chlorobenzyl)-16-benzyl-8-(4-chlorobenzyl)-5-(methoxymethyl)-2,7,13,14-tetramethyl-1,4,7,11,14-pentaazacyclooctadecane-3,6,10,15,18-pentaone]	95.01	1.4
COC[C@@H]1NC(=O)[C@H](CCCNC(=O)OC(C)(C)C)N(Cc2ccc(Cl)cc2Oc2ccc(-c3cnc(CN4CCCC4)n3C)cc2)C(=O)C[C@@H](Cc2ccccc2)C(=O)N(C)[C@H]2CCCC[C@@H]2NC(=O)C[C@H](Cc2ccc(Cl)cc2)N(C)C1=O [Compound 191, tert-butyl (3-((4S,7S,10S,14R,16aS,20aS)-14-benzyl-11-(4-chloro-2-(4-(1-methyl-2-(pyrrolidin-1-ylmethyl)-1H-imidazol-5-yl)phenoxy)benzyl)-4-(4-chlorobenzyl)-7-(methoxymethyl)-5,16-dimethyl-2,6,9,12,15-pentaoxodocosahydrobenzo[l][1,4,7,11,14]pentaazacyclooctadecin-10-yl)propyl)carbamate]	94.20	2.1
